One experiment deals with T1, human β3 adrenergic receptor (Homo sapiens, UniProt P13945).
T1 construct: expressed in transfected cells; host or cells: DXB-11 Chinese hamster ovary (CHO) cell line, stably transfected (phd expression vector)
T1 sequence (P13945 whole entry): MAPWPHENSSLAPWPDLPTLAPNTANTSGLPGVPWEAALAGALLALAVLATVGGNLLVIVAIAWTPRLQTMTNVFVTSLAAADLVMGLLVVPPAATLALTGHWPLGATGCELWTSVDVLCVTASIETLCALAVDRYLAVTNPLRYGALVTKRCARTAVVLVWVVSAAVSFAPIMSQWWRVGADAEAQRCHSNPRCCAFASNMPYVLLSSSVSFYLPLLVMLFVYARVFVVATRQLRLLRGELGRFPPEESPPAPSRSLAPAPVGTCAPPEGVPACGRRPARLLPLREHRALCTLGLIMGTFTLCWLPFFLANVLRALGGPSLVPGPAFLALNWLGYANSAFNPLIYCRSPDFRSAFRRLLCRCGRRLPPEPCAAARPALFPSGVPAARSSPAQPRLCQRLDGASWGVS
Nature of the experiment: whole cell receptor coupled c-AMP assay, human β3 receptor in CHO cells (EC50, Emax relative to isoproterenol). The format is cell-based. To be noted: % intrinsic activity relative to isoproterenol maximal response; average of at least 3 runs; c-AMP in transfected CHO cells. In a few lines:
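Stably transfected DXB-11 CHO cells (20,000/well) were exposed to compound for 20 min at 37 °C in HBSS/HEPES buffer with 1 mM IBMX, pH 7.4. cAMP was measured by SPA. EC50 came from a four-parameter logistic fit, and Emax is the maximal response as a percentage of isoproterenol's.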
For the molecule `Cc1ccc(-c2cccc(F)c2OC[C@@H](O)CNC(C)(C)Cc2ccc(Oc3ccc(C#N)cn3)cc2)s1.Cl` [Example 427], the “Emax (%) ± SEM” value was 72.4 ± 6.9%.
Same read-out and setting: under `Cc1ccc(-c2ccccc2OC[C@@H](O)CNC(C)(C)Cc2ccc(Oc3ncccc3C(N)=O)cc2)s1.Cl` [Example 417] stands 79.3 ± 2.4%.
On the same count and under the same terms, the value for `CC(C)(Cc1ccc(Oc2ccc(C#N)cn2)cc1)NC[C@H](O)COc1c(F)cccc1-c1ccco1.Cl` [Example 430] was 77.4 ± 9.0%; that for `CC(=O)c1ccc(-c2ccccc2OC[C@@H](O)CNC(C)(C)Cc2ccc(Oc3ccc(C(N)=O)cn3)cc2)s1.O=C(O)C(F)(F)F` [Example 411] was 78.2 ± 9.9%; that for `CC(C)(Cc1ccc(Oc2ncccc2C#N)cc1)NC[C@H](O)COc1c(F)cccc1-c1ccsc1.Cl` [Example 436] was 57.5 ± 12.0%.
On the same count and under the same terms, the value for `CC(C)(Cc1ccc(Oc2ncccc2C#N)cc1)NC[C@H](O)COc1ccccc1-c1cc2ccccc2s1` [Example 386] was 46.9 ± 6.7%; that for `CC(C)(Cc1ccc(Oc2cccnc2C#N)cc1)NC[C@H](O)COc1ccccc1-c1ccsc1.Cl` [Example 421] was 53.4 ± 6.9%.
In the case of `CC(C)(Cc1ccc(Oc2ncccc2C(N)=O)cc1)NC[C@H](O)COc1ccccc1-c1ccsc1.O=C(O)C(F)(F)F` [Example 381], the “Emax (%) ± SEM” value is listed as 58.5 ± 6.9%.
The same measure, in the same setting: under `CC(C)(Cc1ccc(Oc2ccc(C(N)=O)cn2)cc1)NC[C@H](O)COc1ccccc1-c1cc2ccccc2o1` [Example 370] stands 40.3 ± 2.8%.

The same experiment, now with this note: Emax ± SEM; average of at least 3 runs except as otherwise indicated; tested as the isolated form listed.
On to `CC(C)(Cc1ccc(Oc2ccc(S(C)(=O)=O)cc2)cc1)NC[C@H](O)COc1ccccc1-c1ccoc1.Cl` [Example 304], for which the “Emax (%) ± SEM” value stood at 44.8 ± 4.9%.
Still for that read-out and setting: under `CC(C)(Cc1ccc(Oc2cccnc2C#N)cc1)NC[C@H](O)COc1ccccc1-c1ccoc1.Cl` [Example 307] stands 74.4 ± 1.8%.

Staying with this experiment, now noted: Emax ± standard error of the mean; average of at least 3 runs except where n = 1; compound tested in the isolated form listed.
`CC(C)(Cc1ccc(Oc2ncccc2C(N)=O)cc1)NC[C@H](O)COc1ccccc1-c1nc2ccccc2o1` [Example 81]: the “Emax (%) ± SEM” value turned out to be 60.4 ± 5.1%.
Consider `CC(C)(Cc1ccc(Oc2ccc(C#N)cc2)cc1)NC[C@H](O)COc1ccccc1-c1cccs1.O=C(O)C(F)(F)F` [Example 119], for which the “Emax (%) ± SEM” value was 55.2 ± 3.6%.
Still for that read-out and setting: under `CC(C)(Cc1ccc(Oc2ncccc2C#N)cc1)NC[C@H](O)COc1ccccc1-c1ccnc(N)n1` [Example 61] stands 32.8 ± 4.3%; under `CC(C)(Cc1ccc(Oc2cccnc2C#N)cc1)NC[C@H](O)COc1ccccc1-c1cscn1.Cl` [Example 241], 47.0 ± 2.5%.
Same read-out and setting: under `CC(C)(Cc1ccc(Oc2ccccc2C#N)cc1)NC[C@H](O)COc1ccc(F)cc1-c1cccs1.O=C(O)C(F)(F)F` [Example 214] stands 42.4 ± 9.4%; under `CC(C)(Cc1ccc(Oc2ccncc2)cc1)NC[C@H](O)COc1ccccc1-c1cccs1.O=C(O)C(F)(F)F` [Example 202], 59.1 ± 6.0%.
Same read-out and setting: the value for `CC(C)(Cc1ccc(Oc2ccccc2C#N)cc1)NC[C@H](O)COc1ccccc1-c1cccs1.O=C(O)C(F)(F)F` [Example 286] was 72.1 ± 4.5%; that for `CC(C)(Cc1ccc(Oc2ncccc2C#N)cc1)NC[C@H](O)COc1ccccc1-c1ccncn1` [Example 57] was 41.8 ± 5.6%.
Take `CC(C)(Cc1ccc(Oc2ccc(C(N)=O)cn2)cc1)NC[C@H](O)COc1ccccc1-n1ccc(C=O)c1` [Example 274]: the “Emax (%) ± SEM” value turned out to be 38.8 ± 1.4%.
Turning to `CC(C)(Cc1ccc(Oc2ccc(C(N)=O)cn2)cc1)NC[C@H](O)COc1ccccc1-c1cccs1` [Example 16], the “Emax (%) ± SEM” value is 67.6 ± 4.7%.
Same read-out and setting: the value for `CC(C)(Cc1ccc(Oc2ncccc2C#N)cc1)NC[C@H](O)COc1ccccc1-c1ccon1.Cl` [Example 60] was 70.8 ± 3.1%; that for `CC(C)(Cc1ccc(Oc2ccc(Cl)cn2)cc1)NC[C@H](O)COc1ccccc1-c1nccs1.O=C(O)C(F)(F)F` [Example 168] was 56.1 ± 4.5%.
On the same count and under the same terms, under `CC(C)(Cc1ccc(Oc2cnccn2)cc1)NC[C@H](O)COc1ccccc1-c1cccs1.O=C(O)C(F)(F)F` [Example 153] stands 66.8 ± 5.5%; under `CC(C)(Cc1ccc(Oc2ccc(C#N)cn2)cc1)NC[C@H](O)COc1ccccc1N1CCCC1=O` [Example 11], 18.0 ± 6.5%; under `CC(C)(Cc1ccc(Oc2ncccc2C#N)cc1)NC[C@H](O)COc1cccc(F)c1-c1cccs1.O=C(O)C(F)(F)F` [Example 64], 30.5 ± 6.8%.
Still for that read-out and setting: under `CC(C)(Cc1ccc(Oc2ncccc2C(N)=O)cc1)NC[C@H](O)COc1ccccc1-c1cc2ccccc2[nH]1` [Example 21] stands 48.0 ± 2.0%; under `CC(C)(Cc1ccc(Oc2ncccc2Cl)cc1)NC[C@H](O)COc1ccccc1-c1nccs1.O=C(O)C(F)(F)F` [Example 179], 62.2 ± 8.6%; under `CC(C)(Cc1ccc(Oc2ccc(C#N)cn2)cc1)NC[C@H](O)COc1ccccc1-c1cccs1.O=C(O)C(=O)O` [Example 285], 24.6 ± 3.8%.
`CC(C)(Cc1ccc(Oc2cccc(Cl)n2)cc1)NC[C@H](O)COc1ccccc1-c1cccs1.O=C(O)C(F)(F)F` [Example 175]: the “Emax (%) ± SEM” value is 67.4 ± 3.9%.
On the same count and under the same terms, under `CC(C)(Cc1ccc(Oc2cccnc2C(N)=O)cc1)NC[C@H](O)COc1ccccc1-c1ccno1.O=C(O)C(F)(F)F` [Example 198] stands 48.1 ± 6.5%; under `CC(C)(Cc1ccc(Oc2ccc(C#N)cn2)cc1)NC[C@H](O)COc1ccccc1-c1cc2ccccc2[nH]1` [Example 9], 23.7 ± 10.0%.
Same read-out and setting: under `COC(=O)c1ccc(Oc2ccc(CC(C)(C)NC[C@H](O)COc3ccccc3-c3ccn[nH]3)cc2)nc1` [Example 118] stands 29.5 n = 1%; under `CC(C)(Cc1ccc(Oc2ccc(S(C)(=O)=O)cc2F)cc1)NC[C@H](O)COc1ccccc1-c1cscn1.Cl` [Example 250], 31.6 ± 3.1%.
For the molecule `CC(C)(Cc1ccc(Oc2ccc(S(C)(=O)=O)cc2)cc1)NC[C@H](O)COc1ccccc1-c1cccs1.O=C(O)C(F)(F)F` [Example 129], the “Emax (%) ± SEM” value is given as 53.2 ± 4.8%.
The same measure, in the same setting: the value for `CC(C)(Cc1ccc(Oc2ncc(C(F)(F)F)cc2Cl)cc1)NC[C@H](O)COc1ccccc1-c1cscn1.Cl` [Example 254] was 50.5 ± 0.8%; that for `CC(C)(Cc1ccc(Oc2ncccc2C(N)=O)cc1)NC[C@H](O)COc1ccccc1-n1cccc1.Cl` [Example 85] was 69.2 ± 12.1%; that for `CCOC(=O)c1cccnc1Oc1ccc(CC(C)(C)NC[C@H](O)COc2ccccc2-c2ccn(C)n2)cc1` [Example 106] was 53.2 ± 2.4%.
On the same count and under the same terms, under `CC(C)(Cc1ccc(Oc2ccccc2C#N)cc1)NC[C@H](O)COc1ccccc1-c1ccns1.O=C(O)C(F)(F)F` [Example 213] stands 63.0 ± 3.2%; under `CC(C)(Cc1ccc(Oc2ccc(C(N)=O)cn2)cc1)NC[C@H](O)COc1ccccc1-c1nccs1` [Example 17], 62.9 ± 2.2%.
Still for that read-out and setting: under `CC(C)(Cc1ccc(Oc2ccc(C(N)=O)nc2)cc1)NC[C@H](O)COc1ccccc1-n1cccc1.Cl` [Example 266] stands 36.7 ± 6.8%; under `CCOC(=O)c1ccc(Oc2ccc(CC(C)(C)NC[C@H](O)COc3ccccc3-c3cccs3)cc2)c(F)c1.O=C(O)C(F)(F)F` [Example 184], 64.1 ± 3.2%; under `COC(=O)c1ccc(Oc2ccc(CC(C)(C)NC[C@H](O)COc3ccccc3-c3nccs3)cc2)nc1` [Example 116], 58.2 ± 7.2%.
For the molecule `COC(=O)c1ccc(Oc2ccc(CC(C)(C)NC[C@H](O)COc3ccccc3-c3ccn[nH]3)cc2)c(Cl)c1` [Example 142], the “Emax (%) ± SEM” value is 20.2 n = 1%.
On the same count and under the same terms, under `CC(C)(Cc1ccc(Oc2ccc(C#N)nc2)cc1)NC[C@H](O)COc1ccccc1-c1ccno1.O=C(O)C(F)(F)F` [Example 221] stands 40.8 ± 8.3%; under `CC(C)(Cc1ccc(Oc2ncccc2C(N)=O)cc1)NC[C@H](O)COc1ccccc1-c1cccs1` [Example 68], 83.7 ± 3.0%.
On the same count and under the same terms, under `CC(C)(Cc1ccc(Oc2ccc(Cl)nn2)cc1)NC[C@H](O)COc1ccccc1-c1nccs1.O=C(O)C(F)(F)F` [Example 209] stands 88.3 ± 8.0%; under `CC(C)(Cc1ccc(Oc2cccc(Cl)c2C(N)=O)cc1)NC[C@H](O)COc1ccccc1-c1ccno1.O=C(O)C(F)(F)F` [Example 219], 50.4 ± 6.3%.
On the same count and under the same terms, the value for `CC(C)(Cc1ccc(Oc2ccc(C(N)=O)cn2)cc1)NC[C@H](O)COc1cccc(-c2ccnc(N)n2)c1` [Example 38] was 20.5 n = 1%; that for `CC(C)(Cc1ccc(Oc2cnccn2)cc1)NC[C@H](O)COc1ccccc1-c1cscn1.Cl` [Example 256] was 50.6 ± 1.8%; that for `CC(C)(Cc1ccc(Oc2ncc(Cl)cc2Cl)cc1)NC[C@H](O)COc1ccccc1-c1cccs1.O=C(O)C(F)(F)F` [Example 173] was 87.9 ± 4.5%.
Regarding `CC(C)(Cc1ccc(Oc2ccc(C(N)=O)cc2F)cc1)NC[C@H](O)COc1ccccc1-c1ccno1.O=C(O)C(F)(F)F` [Example 192], the “Emax (%) ± SEM” value was determined as 40.3 ± 6.9%.
Same read-out and setting: the value for `CC(C)(Cc1ccc(Oc2ncccc2C(N)=O)cc1)NC[C@H](O)COc1ccccc1-c1ccn[nH]1` [Example 74] was 36.8 n = 1%.
Take `CC(C)(Cc1ccc(Oc2ccc(C(N)=O)cc2F)cc1)NC[C@H](O)COc1ccccc1-c1nccs1.O=C(O)C(F)(F)F` [Example 191]: the “Emax (%) ± SEM” value stood at 49.5 ± 1.5%.
As for `CC(C)(Cc1ccc(Oc2ncccc2C(N)=O)cc1)NC[C@H](O)COc1ccccc1-c1ccns1.O=C(O)C(=O)O` [Example 96], the “Emax (%) ± SEM” value was found to be 78.1 ± 6.6%.

Source of the values: US6730792B2, “β3 adrenergic agonists” (Eli Lilly and Company, priority 2000, dated 2004).
